The record followed here is patent US12661335B2, “Halogenated xanthene-containing topical anti-gram-positive bacterial ophthalmic composition and method” (Provectus Pharmatech, Inc., priority 2021, dated 2026).

≈ marks a conversion by molar mass, not a printed value. Where two headings read alike, the source gives them in different places.

Test [1] deals with M. smegmatis 607 ™ (RB mutant). The test is classed as cell-based, Mycobacterium smegmatis. As to conditions: dark condition; triplicated.
Test [2] has as its system Mycobacterium smagmatis 607 ™. Nature of the test: MIC, broth dilution method, dark condition. As to conditions: for MIC: read-out: MIC (μg/mL) against M. smegmatis 607 ™ (wild-type). The format is cell-based, Mycobacterium smegmatis. (Broth dilution looks for growth in wells or tubes with falling amounts of substance.)
Test [3] has as its system biofilms of S. aureus 6508™. Nature of the test: Biofilm eradication assay. The format is cell-based, Staphylococcus aureus. As to conditions: linezolid at 600 μg/mL. The protocol:
62:394-399 (2013)], and was used as a control.
Linezolid was applied as a positive control at very high concentration of 600 μg/mL (>100×MIC for the planktonic cells) in biofilm assays reported by Kurosu et al., Molecules 27:322 (2022).

For `NC[C@H]1O[C@@H](O[C@H]([C@H]2O[C@@H](n3ccc(=O)[nH]c3=O)[C@H](O)[C@@H]2O)[C@H](NCCCC(=O)NCc2ccc(N3CCC(Oc4ccc(OC(F)(F)F)cc4)CC3)cc2)C(N)=O)[C@H](O)[C@@H]1O` [APPB, aminouridyl phenoxypiperidinylbenzyl butanamide], the “MIC (μg/mL) against M. smegmatis 607 ™ (RB mutant)” value in test [1] worked out at 0.20 µg/mL (≈ 0.227 µM). In addition, the “MIC (μg/mL) against M. smegmatis 607 ™ (wild-type)” value in test [2] (dark condition, triplicated) is 0.20 µg/mL (≈ 0.227 µM). For the compound `NCC[C@H](O)C(=O)N[C@@H]1C[C@H](N)[C@@H](O[C@H]2O[C@H](CN)[C@@H](O)[C@H](O)[C@H]2O)[C@H](O)[C@H]1O[C@H]1O[C@H](CO)[C@@H](O)[C@H](N)[C@H]1O` [Amikacin], the MIC in test [2] (dark condition, triplicated) came out at 0.78 µg/mL (≈ 1.33 µM). As to `CCc1cc(C(N)=S)ccn1` [Ethionamide (ETH), Ethionamide], in test [2], the MIC was 12.5 µg/mL (≈ 75.2 µM). As for `NNC(=O)c1ccncc1` [Isoniazid (INH), Isoniazid], in test [2] (dark condition, triplicated), the MIC was found to be 1.56 µg/mL (≈ 11.4 µM). As for `CO[C@H]1/C=C/O[C@@]2(C)Oc3c(C)c(O)c4c(O)c(c(/C=N/N5CCN(C)CC5)c(O)c4c3C2=O)NC(=O)/C(C)=C\C=C\[C@H](C)[C@H](O)[C@@H](C)[C@@H](O)[C@@H](C)[C@H](OC(C)=O)[C@@H]1C` [Rifampicin], the MIC in test [2] stood at 1.56 µg/mL (≈ 1.9 µM).

`CC(=O)NC[C@H]1CN(c2ccc(N3CCOCC3)c(F)c2)C(=O)O1` [linezolid, reference compound]: the “biofilm eradication efficacy of positive control compared with RB” value in test [3] is listed as “the same level of efficacy”. Regarding Capreomycin, the “MIC (μg/mL) against M. smegmatis 607 ™ (RB mutant)” value in test [1] is 3.13 µg/mL. In addition, the “MIC (μg/mL) against M. smegmatis 607 ™ (wild-type)” value in test [2] (dark condition, triplicated) amounted to 3.13 µg/mL.
